Measured values reported in ChEMBL document CHEMBL5620346, “Current scenario of pyrazole hybrids with in vivo therapeutic potential against cancers” (Eur J Med Chem, 2023).

Columns and labels:
HCT-116 [1] = experiment: Antiproliferative activity against human HCT-116 cells assessed as reduction in cell growth incubated for 72 hrs by SRB assay; assay type: functional, cell-based; settings: HCT-116, 72 h
HepG2 [2] = experiment: Antiproliferative activity against human HepG2 cells assessed as reduction in cell growth incubated for 72 hrs by SRB assay; assay type: functional, cell-based; settings: HepG2, 72 h
NCI-H1975 = experiment: Antiproliferative activity against human NCI-H1975 cells assessed as reduction in cell growth incubated for 72 hrs by SRB assay; assay type: functional, cell-based; settings: NCI-H1975, 72 h
[3] = Antiproliferative activity against human 95-D cells assessed as reduction in cell growth incubated for 72 hrs by SRB assay; assay type: functional, cell-based
PANC-1 = experiment: Antiproliferative activity against human PANC-1 cells assessed as reduction in cell growth incubated for 72 hrs by SRB assay; assay type: functional, cell-based; settings: PANC-1, 72 h
MDA-MB-231 = experiment: Antiproliferative activity against human MDA-MB-231 cells assessed as reduction in cell growth incubated for 72 hrs by SRB assay; assay type: functional, cell-based; settings: MDA-MB-231, 72 h
Bel-7402 = experiment: Antiproliferative activity against human Bel-7402 cells assessed as reduction in cell growth incubated for 72 hrs by SRB assay; assay type: functional, cell-based; settings: Bel-7402, 72 h
NCI-H1299 = experiment: Antiproliferative activity against human NCI-H1299 cells assessed as reduction in cell growth incubated for 72 hrs by SRB assay; assay type: functional, cell-based; settings: NCI-H1299, 72 h
SK-OV-3 = experiment: Antiproliferative activity against human SK-OV-3 cells assessed as reduction in cell growth incubated for 72 hrs by SRB assay; assay type: functional, cell-based; settings: SK-OV-3, 72 h
K562 = experiment: Antiproliferative activity against human K562 cells assessed as reduction in cell growth incubated for 72 hrs by SRB assay; assay type: functional, cell-based; settings: K562, 72 h
U-87 MG = experiment: Antiproliferative activity against human U87 cells assessed as reduction in cell growth incubated for 72 hrs by SRB assay; assay type: functional, cell-based, U-87MG ATCC
[4] = Cytotoxicity against human NCM460 cells assessed as reduction in cell viability incubated for 48 hrs by MTT assay; assay type: toxicity, cell-based
[5] = Antiproliferative activity against HUVEC cells assessed as cell growth inhibition measured after 72 hrs by crystal violet staining based analysis; assay type: toxicity; settings: human
HCT-116 [6] = experiment: Antitumor activity against human HCT-116 cells xenografted in BALB/c nude mouse assessed as tumor growth inhibition at 25 mg/kg, po administered once a daily for 13 consecutive days relative to control; assay type: functional; settings: read-out: TGI
HCT-116 [7] = experiment: Antitumor activity against human HCT-116 cells xenografted in BALB/c nude mouse assessed as tumor growth inhibition at 50 mg/kg, po administered once a daily for 13 consecutive days relative to control; assay type: functional; settings: read-out: TGI
H22 [8] = experiment: Antitumor activity against mouse H22 cells implanted in Kunming mouse assessed as reduction in tumor growth at 10 mg/kg, iv relative to control; assay type: functional; settings: read-out: TGI
H22 [9] = experiment: Antitumor activity against mouse H22 cells implanted in Kunming mouse assessed as reduction in tumor growth at 20 mg/kg, iv relative to control; assay type: functional; settings: read-out: TGI
[10] = biological target: Ubiquitin carboxyl-terminal hydrolase 8 (Homo sapiens, UniProt P40818); experiment: Inhibition of human USP8 expressed in Escherichia coli using K63-linked di-ubiquitin (ENZO BML-UW0730-0050) as substrate preincubated for 15 mins followed by substrate addition and measured after 20 mins by fluorescence based analysis
MDA-MB-435 = experiment: Antitumor activity against human MDA-MB-435 cells xenografted in Sprague-Dawley rat model assessed as reduction in tumor volume at 50 mg/kg, ip relative to control; assay type: functional; parameters: scale not given: the % may be the effect or the level left
HT-29 [11] = experiment: Antiproliferative activity against human HT-29 cells assessed as reduction in cell viability incubated for 72 hrs by MTT assay; assay type: functional, cell-based; settings: HT-29, 72 h
HCT-116 [12] = experiment: Antiproliferative activity against human HCT-116 cells assessed as reduction in cell viability incubated for 72 hrs by MTT assay; assay type: functional, cell-based; settings: HCT-116, 72 h
HGC-27 = experiment: Antiproliferative activity against human HGC-27 cells assessed as reduction in cell viability incubated for 72 hrs by MTT assay; assay type: functional, cell-based; settings: HGC-27, 72 h
HeLa [13] = experiment: Antiproliferative activity against human HeLa cells assessed as reduction in cell viability incubated for 72 hrs by MTT assay; assay type: functional, cell-based
HT-29 [14] = experiment: Antitumor activity against human HT-29 cells xenografted in po dosed nude mouse assessed as reduction in tumor growth at 20 mg/kg relative to control; assay type: functional; settings: read-out: TGI
[15] = Tmax in mouse at 1 mg/kg, sc; assay type: ADME, organism-based; settings: in vivo
[16] = Cmax in mouse at 1 mg/kg, sc; assay type: ADME, organism-based; settings: in vivo
[17] = Oral bioavailability in mouse at 1 mg/kg; assay type: ADME, organism-based; settings: in vivo
T47D [18] = experiment: Antitumor activity against human T47D cells xenografted in nude BALB/c mouse assessed as tumor growth inhibition at 20 mg/kg administered via oral gavage for 20 days relative to control; assay type: functional; settings: 480 h, time 20 day, read-out: TGI
T47D [19] = experiment: Antitumor activity against human T47D cells xenografted in nude BALB/c mouse assessed as tumor growth inhibition at 40 mg/kg administered via oral gavage for 20 days relative to control; assay type: functional; settings: 480 h, time 20 day, read-out: TGI
[20] = […] in mouse xenografted with human NCI-H526 cells assessed as reduction in tumor growth at 3 mg/kg, po relative to control; assay type: organism-based; settings: in vivo
HepG2 [21] = experiment: Cytotoxicity against human HepG2 cells assessed as reduction in cell viability incubated for 72 hrs by MTT assay; assay type: functional, cell-based; settings: HepG2, 72 h
MCF7 = experiment: Cytotoxicity against human MCF7 cells assessed as reduction in cell viability incubated for 72 hrs by MTT assay; assay type: functional, cell-based; settings: MCF7, 72 h
HeLa [22] = experiment: Cytotoxicity against human HeLa cells assessed as reduction in cell viability incubated for 72 hrs by MTT assay; assay type: functional, cell-based
[23] = Oral bioavailability in rat; settings: in vivo
[24] = Oral bioavailability in dog; settings: in vivo

Chain of Ubiquitin carboxyl-terminal hydrolase 8 (P40818 whole entry): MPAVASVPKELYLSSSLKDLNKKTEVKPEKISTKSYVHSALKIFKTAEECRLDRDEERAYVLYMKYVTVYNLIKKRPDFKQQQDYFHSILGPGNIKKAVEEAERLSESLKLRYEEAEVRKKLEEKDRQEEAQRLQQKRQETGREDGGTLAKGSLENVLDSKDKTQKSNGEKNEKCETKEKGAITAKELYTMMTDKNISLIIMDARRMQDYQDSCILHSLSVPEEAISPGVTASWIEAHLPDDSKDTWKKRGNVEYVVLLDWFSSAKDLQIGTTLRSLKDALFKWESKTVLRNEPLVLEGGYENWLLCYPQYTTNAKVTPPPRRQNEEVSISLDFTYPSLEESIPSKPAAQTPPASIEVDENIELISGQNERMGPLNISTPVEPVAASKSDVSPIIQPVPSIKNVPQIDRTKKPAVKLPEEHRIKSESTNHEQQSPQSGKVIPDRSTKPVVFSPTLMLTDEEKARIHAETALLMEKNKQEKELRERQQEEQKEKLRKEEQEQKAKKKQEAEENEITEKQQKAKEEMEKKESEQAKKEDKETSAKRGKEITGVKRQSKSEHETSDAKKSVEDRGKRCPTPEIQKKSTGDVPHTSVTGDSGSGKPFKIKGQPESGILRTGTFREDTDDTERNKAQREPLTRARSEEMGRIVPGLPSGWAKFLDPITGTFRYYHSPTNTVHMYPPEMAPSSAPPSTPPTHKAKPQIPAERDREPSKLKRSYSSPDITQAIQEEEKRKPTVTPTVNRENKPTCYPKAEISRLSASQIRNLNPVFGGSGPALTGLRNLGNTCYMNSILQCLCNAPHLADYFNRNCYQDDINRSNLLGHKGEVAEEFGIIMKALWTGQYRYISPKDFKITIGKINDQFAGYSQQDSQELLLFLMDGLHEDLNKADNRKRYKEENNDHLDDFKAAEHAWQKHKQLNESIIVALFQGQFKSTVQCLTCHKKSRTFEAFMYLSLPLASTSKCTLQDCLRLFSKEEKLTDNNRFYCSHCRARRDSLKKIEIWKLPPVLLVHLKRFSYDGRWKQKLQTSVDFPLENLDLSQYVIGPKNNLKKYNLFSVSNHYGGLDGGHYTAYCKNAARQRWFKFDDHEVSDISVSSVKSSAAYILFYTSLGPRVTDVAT

CCOc1ccc(Oc2ccc(C3=NN(C4=NC(=O)CS4)C(c4cc(O)c(O)c(Br)c4Br)C3)cc2)cc1 (stereo unspecified) gave an IC50 (HCT-116 [1]) of 2640 nM, an IC50 (HepG2 [2]) of 2640 nM and an IC50 (NCI-H1975) of 2640 nM. It also gave an IC50 [3] of 2640 nM, an IC50 (PANC-1) of 2640 nM and an IC50 (MDA-MB-231) of 2640 nM. For the same molecule, the IC50 (Bel-7402) was 2640 nM, the IC50 (NCI-H1299) was 2640 nM and the IC50 (SK-OV-3) was 2640 nM. For the same molecule, the IC50 (K562) was 2640 nM, the IC50 (U-87 MG) was 2640 nM and the IC50 at 48 h [4] was 27100 nM. For the same molecule, the IC50 at 72 h [5] was 28300 nM, the inhibition in vivo at 25 mg/kg (HCT-116 [6]) was 58.8% and the inhibition in vivo at 50 mg/kg (HCT-116 [7]) was 67.2%.

In the case of COc1cccc(C2=NN(C(N)=O)C(c3cn(C)c4ccc(Br)cc34)C2)c1 (stereo unspecified), the inhibition in vivo at 10 mg/kg (H22 [8]) is reported as 65% and the inhibition in vivo at 20 mg/kg (H22 [9]) is reported as 76%.

Molecule Brc1ccc(-n2nc(-c3cccnc3)cc2-c2ccccc2)cc1 has an IC50 [10] of 1200 nM and an Activity (MDA-MB-435) of 40%.

COc1cc(/C=C2\CCCN3C(=O)C4C=NN(C)C4N=C23)cc(OC)c1OC (stereo unspecified) gave an IC50 (HT-29 [11]) of 30 nM, an IC50 (HCT-116 [12]) of 30 nM and an IC50 (HGC-27) of 30 nM. It also gave an IC50 (HeLa [13]) of 30 nM, an inhibition in vivo at 20 mg/kg (HT-29 [14]) of 61.7% and a Tmax [15] of 1.67 h. For the same molecule, the Cmax [16] was 68.8 ng/mL and the bioavailability [17] was 78.6%.

In the case of COc1ncc(-c2ccc3ncnc(Nc4cnn(CCO)c4)c3c2)cc1NS(=O)(=O)c1ccc(F)cc1F, the inhibition in vivo at 20 mg/kg (T47D [18]) is reported as 54.1% and the inhibition in vivo at 40 mg/kg (T47D [19]) is reported as 84.1%.

Cc1nnn(C)c1-c1cnc2c3cc4cnn(C)c4cc3n([C@H](c3ccccc3)C3CCOCC3)c2c1 showed a TGI [20] of 100%.

O=c1[nH]cc(F)c(=O)[nH]1 [FLUOROURACIL] showed an inhibition in vivo at 25 mg/kg (HCT-116 [6]) of 54.8%.

With CCOC(=O)C1=C(N/C=N/c2cccnc2Cl)Nc2[nH]nc(C)c2C1c1ccc(N(C)C)cc1 (stereo unspecified) the IC50 (HepG2 [21]) was 4550 nM, the IC50 (MCF7) was 4240 nM and the IC50 (HeLa [22]) was 4180 nM.

In the case of COc1cc(OC)c(F)c(COc2cnc(Nc3cnn(CCO)c3)nc2)c1F [ASP-5878], the bioavailability [23] is reported as 76.1% and the bioavailability [24] is reported as 94.2%.
